# From US7612064B2, “Sulfopyrroles” (Takeda Pharmaceutical Company Limited, priority 2003, dated 2009)
# How the values were obtained:
# [1] = Hoechst 33342 nuclear staining; assay type: cell-based; settings: for Hoechst 33342 nuclear staining score, HeLa: HeLa cells; for Hoechst 33342 nuclear staining score, Jurkat: Jurkat cells; for Hoechst 33342 nuclear staining score, H460: H460 cells; for Hoechst 33342 nuclear staining score, Jily: Jily cells; for Hoechst 33342 nuclear staining score, MRC5: MRC5 cells;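 on all read-outs here: apoptotic nuclei scored 0 none 1 weak under 50% of cells 2 strong over 50% of cells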
# Protocol: This assay is performed in 96 well tissue culture plates. Appropriate number of cells (adherent cells: 3-5*10^3, suspension cells: 8-10*10^3) are being seeded out in 80 μl complete medium. Adherent cells are incubated for 24 h for proper spreading out before addition of test compounds while suspension cells are immediately treated with test compounds after seeding out. The test compounds are added in 20 μl complete medium containing max 5% DMSO. […] […] The assay plates are then further incubated for 30 min and subsequently analyzed with a standard inverted fluorescence microscope.
# The readout allows the determination of the fraction of apoptotic nuclei as well as other morphological criteria specific for apoptosis as a function of the treatment. The following scores are used: 0 relating to no activity, 1 relating to weak activity comprising less than 50% of the cells and score 2 relating to strong activity comprising more than 50% of the cells.
# HeLa = experiment: MTS proliferation assay; assay type: cell-based, human; settings: 72 h
# Protocol: (§1) The assay is performed in 96 well tissue culture plates. […] The test compounds are added in 20 μl complete medium containing max 5% DMSO. The final compound concentrations in the assays are 10 μM, 3 μM, 1 μM and 0.3 μM, respectively. The assay plates are incubated for 72 h at culture conditions. The MTS reagent is prepared according to the manufacturer's protocol (Promega G1111). 20 μl MTS reagent are added to each well, the assay plates are quickly spun and incubated for another 3 h at culture conditions. Subsequently, the plates are shortly shacked and absorption measured with a microplate-reader at 492 nm.
# MRC5 = experiment: MTS proliferation assay; assay type: cell-based; settings: MRC5, 72 h
# Protocol: as §1
# [2] = conc 0.1 (final concentrations in μM), 24 h or 48 h incubation
# [3] = conc 0.3 (final concentrations in μM), 24 h or 48 h incubation
# [4] = conc 1 (final concentrations in μM), 24 h or 48 h incubation
# [5] = conc 3 (final concentrations in μM), 24 h or 48 h incubation
# [6] = conc 10 (final concentrations in μM), 24 h or 48 h incubation
compound,measurement,setting,value
Cc1ccc(S(=O)(=O)n2cc(CNCCCN(C)C)cc2-c2ccc3c(c2)OCO3)cc1.Cl.Cl [2 × 2HCl],"Hoechst 33342 nuclear staining score, HeLa",[1]; [2],0
same,"Hoechst 33342 nuclear staining score, HeLa",[1]; [3],0
same,"Hoechst 33342 nuclear staining score, HeLa",[1]; [4],0
same,"Hoechst 33342 nuclear staining score, HeLa",[1]; [5],0
same,"Hoechst 33342 nuclear staining score, Jurkat",[1]; [2],0
same,"Hoechst 33342 nuclear staining score, Jurkat",[1]; [3],0
same,"Hoechst 33342 nuclear staining score, Jurkat",[1]; [4],0
same,"Hoechst 33342 nuclear staining score, Jurkat",[1]; [5],0
"Cc1ccc(S(=O)(=O)n2cc(CNCCCN(C)C)cc2-c2ccc3c(c2)OCO3)cc1 [Example 2, 4-(N-[3-Dimethylaminopropyl]-aminomethyl)-2-(3,4-methylenedioxyphenyl)-1-(p-toluenesulfonyl)-pyrrole]",IC50,HeLa; Homo sapiens,> 1000 nM
same,IC50,MRC5; Homo sapiens,> 1000 nM
same,"Hoechst 33342 nuclear staining score, HeLa",[1]; [2],0
same,"Hoechst 33342 nuclear staining score, HeLa",[1]; [3],0
same,"Hoechst 33342 nuclear staining score, HeLa",[1]; [4],0
same,"Hoechst 33342 nuclear staining score, HeLa",[1]; [5],0
same,"Hoechst 33342 nuclear staining score, Jurkat",[1]; [2],0
same,"Hoechst 33342 nuclear staining score, Jurkat",[1]; [3],0
same,"Hoechst 33342 nuclear staining score, Jurkat",[1]; [4],0
same,"Hoechst 33342 nuclear staining score, Jurkat",[1]; [5],0
Cc1ccc(S(=O)(=O)n2cc(CNCCCc3ccccc3)cc2-c2ccc3c(c2)OCO3)cc1 [Example 10],IC50,HeLa,> 1000 nM
same,IC50,MRC5,> 1000 nM
same,"Hoechst 33342 nuclear staining score, HeLa",[1]; [2],0
same,"Hoechst 33342 nuclear staining score, HeLa",[1]; [3],0
same,"Hoechst 33342 nuclear staining score, HeLa",[1]; [4],0
same,"Hoechst 33342 nuclear staining score, HeLa",[1]; [5],0
same,"Hoechst 33342 nuclear staining score, Jurkat",[1]; [2],0
same,"Hoechst 33342 nuclear staining score, Jurkat",[1]; [3],0
same,"Hoechst 33342 nuclear staining score, Jurkat",[1]; [4],0
same,"Hoechst 33342 nuclear staining score, Jurkat",[1]; [5],0
Cc1ccc(S(=O)(=O)n2cc(CNCCCN3CCN(C)CC3)cc2-c2ccc3c(c2)OCO3)cc1.Cl.Cl [Example 13],"Hoechst 33342 nuclear staining score, HeLa",[1]; [2],0
same,"Hoechst 33342 nuclear staining score, HeLa",[1]; [3],0
same,"Hoechst 33342 nuclear staining score, HeLa",[1]; [4],0
same,"Hoechst 33342 nuclear staining score, HeLa",[1]; [5],0
same,"Hoechst 33342 nuclear staining score, Jurkat",[1]; [2],0
same,"Hoechst 33342 nuclear staining score, Jurkat",[1]; [3],0
same,"Hoechst 33342 nuclear staining score, Jurkat",[1]; [4],0
same,"Hoechst 33342 nuclear staining score, Jurkat",[1]; [5],0
Cc1ccc(S(=O)(=O)n2cc(CNCCc3ccccc3)cc2-c2ccc3c(c2)OCO3)cc1 [Example 43],IC50,HeLa,> 1000 nM
same,IC50,MRC5,> 1000 nM
same,"Hoechst 33342 nuclear staining score, HeLa",[1]; [3],0
same,"Hoechst 33342 nuclear staining score, HeLa",[1]; [4],0
same,"Hoechst 33342 nuclear staining score, HeLa",[1]; [5],0
same,"Hoechst 33342 nuclear staining score, HeLa",[1]; [6],0
same,"Hoechst 33342 nuclear staining score, Jurkat",[1]; [3],0
same,"Hoechst 33342 nuclear staining score, Jurkat",[1]; [4],0
same,"Hoechst 33342 nuclear staining score, Jurkat",[1]; [5],0
same,"Hoechst 33342 nuclear staining score, Jurkat",[1]; [6],0
COc1cc(-c2cc(-c3cncc(CN(C)C)c3)cn2S(=O)(=O)c2ccc(C)cc2)cc(OC)c1OC [Example 59],IC50,HeLa,> 1000 nM
same,IC50,MRC5,> 1000 nM
same,"Hoechst 33342 nuclear staining score, H460",[1]; conc 0.1,0
same,"Hoechst 33342 nuclear staining score, H460",[1]; conc 0.3,0
same,"Hoechst 33342 nuclear staining score, H460",[1]; conc 1,0
same,"Hoechst 33342 nuclear staining score, H460",[1]; conc 3,2 (strong activity comprising more than 50% of the cells)
same,"Hoechst 33342 nuclear staining score, HeLa",[1]; conc 0.1,0
same,"Hoechst 33342 nuclear staining score, HeLa",[1]; conc 0.3,0
same,"Hoechst 33342 nuclear staining score, HeLa",[1]; conc 1,0
same,"Hoechst 33342 nuclear staining score, HeLa",[1]; conc 3,0
same,"Hoechst 33342 nuclear staining score, Jily",[1]; conc 0.1,0
same,"Hoechst 33342 nuclear staining score, Jily",[1]; conc 0.3,0
same,"Hoechst 33342 nuclear staining score, Jily",[1]; conc 1,0
same,"Hoechst 33342 nuclear staining score, Jily",[1]; conc 3,0
same,"Hoechst 33342 nuclear staining score, Jurkat",[1]; conc 0.1,0
same,"Hoechst 33342 nuclear staining score, Jurkat",[1]; conc 0.3,0
same,"Hoechst 33342 nuclear staining score, Jurkat",[1]; conc 1,0
same,"Hoechst 33342 nuclear staining score, Jurkat",[1]; conc 3,2 (strong activity comprising more than 50% of the cells)
same,"Hoechst 33342 nuclear staining score, MRC5",[1]; conc 0.1,0
same,"Hoechst 33342 nuclear staining score, MRC5",[1]; conc 0.3,0
same,"Hoechst 33342 nuclear staining score, MRC5",[1]; conc 1,0
same,"Hoechst 33342 nuclear staining score, MRC5",[1]; conc 3,0
same,"Hoechst 33342 nuclear staining score, PBLs",[1]; conc 0.1,0
same,"Hoechst 33342 nuclear staining score, PBLs",[1]; conc 0.3,0
same,"Hoechst 33342 nuclear staining score, PBLs",[1]; conc 1,0
same,"Hoechst 33342 nuclear staining score, PBLs",[1]; conc 3,0
Cc1ccc(S(=O)(=O)n2cc(CNc3ccccn3)cc2-c2ccc3c(c2)OCO3)cc1 [Example 44],IC50,HeLa,> 1000 nM
same,IC50,MRC5,> 1000 nM
same,"Hoechst 33342 nuclear staining score, HeLa",[1]; [3],0
same,"Hoechst 33342 nuclear staining score, HeLa",[1]; [4],0
same,"Hoechst 33342 nuclear staining score, HeLa",[1]; [5],0
same,"Hoechst 33342 nuclear staining score, HeLa",[1]; [6],2 (strong activity comprising more than 50% of the cells)
same,"Hoechst 33342 nuclear staining score, Jurkat",[1]; [3],0
same,"Hoechst 33342 nuclear staining score, Jurkat",[1]; [4],0
same,"Hoechst 33342 nuclear staining score, Jurkat",[1]; [5],0
same,"Hoechst 33342 nuclear staining score, Jurkat",[1]; [6],2 (strong activity comprising more than 50% of the cells)
Cc1ccc(S(=O)(=O)n2cc(CNc3ccc(N4CCOCC4)cc3)cc2-c2cccs2)cc1 [Example 9],IC50,HeLa,> 1000 nM
same,"Hoechst 33342 nuclear staining score, HeLa",[1]; [2],0
same,"Hoechst 33342 nuclear staining score, HeLa",[1]; [3],0
same,"Hoechst 33342 nuclear staining score, HeLa",[1]; [4],0
same,"Hoechst 33342 nuclear staining score, HeLa",[1]; [5],1 (weak activity comprising less than 50% of the cells)
same,"Hoechst 33342 nuclear staining score, Jurkat",[1]; [2],0
same,"Hoechst 33342 nuclear staining score, Jurkat",[1]; [3],0
same,"Hoechst 33342 nuclear staining score, Jurkat",[1]; [4],0
same,"Hoechst 33342 nuclear staining score, Jurkat",[1]; [5],2 (strong activity comprising more than 50% of the cells)
Cc1ccc(S(=O)(=O)n2cc(CNc3ccc(CN4CCOCC4)cc3)cc2-c2ccc3c(c2)OCO3)cc1 [Example 41],IC50,HeLa,> 1000 nM
same,IC50,MRC5,> 1000 nM
same,"Hoechst 33342 nuclear staining score, HeLa",[1]; [3],0
same,"Hoechst 33342 nuclear staining score, HeLa",[1]; [4],0
same,"Hoechst 33342 nuclear staining score, HeLa",[1]; [5],0
same,"Hoechst 33342 nuclear staining score, HeLa",[1]; [6],0
same,"Hoechst 33342 nuclear staining score, Jurkat",[1]; [3],0
same,"Hoechst 33342 nuclear staining score, Jurkat",[1]; [4],0
same,"Hoechst 33342 nuclear staining score, Jurkat",[1]; [5],0
same,"Hoechst 33342 nuclear staining score, Jurkat",[1]; [6],0
Cc1ccc(S(=O)(=O)n2cc(CNc3ccc(S(N)(=O)=O)cc3)cc2-c2ccc3c(c2)OCO3)cc1 [Example 45],IC50,HeLa,> 1000 nM
same,IC50,MRC5,> 1000 nM
same,"Hoechst 33342 nuclear staining score, HeLa",[1]; [3],0
same,"Hoechst 33342 nuclear staining score, HeLa",[1]; [4],0
same,"Hoechst 33342 nuclear staining score, HeLa",[1]; [5],0
same,"Hoechst 33342 nuclear staining score, HeLa",[1]; [6],1 (weak activity comprising less than 50% of the cells)
same,"Hoechst 33342 nuclear staining score, Jurkat",[1]; [3],0
same,"Hoechst 33342 nuclear staining score, Jurkat",[1]; [4],0
same,"Hoechst 33342 nuclear staining score, Jurkat",[1]; [5],0
same,"Hoechst 33342 nuclear staining score, Jurkat",[1]; [6],2 (strong activity comprising more than 50% of the cells)
COc1ccc(CCNCc2cc(-c3ccc4c(c3)OCO4)n(S(=O)(=O)c3ccc(C)cc3)c2)cc1 [Example 11],IC50,HeLa,> 1000 nM
same,"Hoechst 33342 nuclear staining score, HeLa",[1]; [2],0
same,"Hoechst 33342 nuclear staining score, HeLa",[1]; [3],0
same,"Hoechst 33342 nuclear staining score, HeLa",[1]; [4],0
same,"Hoechst 33342 nuclear staining score, HeLa",[1]; [5],0
same,"Hoechst 33342 nuclear staining score, Jurkat",[1]; [2],0
same,"Hoechst 33342 nuclear staining score, Jurkat",[1]; [3],0
same,"Hoechst 33342 nuclear staining score, Jurkat",[1]; [4],0
same,"Hoechst 33342 nuclear staining score, Jurkat",[1]; [5],0
"CCN(Cc1cc(-c2cccs2)n(S(=O)(=O)c2ccc(C)cc2)c1)c1ccc(OC)cc1OC [Example 1, 4(N-2,4-Dimethoxyphenyl-N-ethylaminomethyl)-2-(2-thienyl)-1-(p-toluene-sulfonyl)-pyrrole]",IC50,HeLa,> 1000 nM
same,IC50,MRC5,> 1000 nM
Cc1ccc(S(=O)(=O)n2cc(CNCCc3ccccc3)cc2-c2cccs2)cc1 [Example 7],IC50,HeLa,> 1000 nM
same,"Hoechst 33342 nuclear staining score, HeLa",[1]; [2],0
same,"Hoechst 33342 nuclear staining score, HeLa",[1]; [3],0
same,"Hoechst 33342 nuclear staining score, HeLa",[1]; [4],0
same,"Hoechst 33342 nuclear staining score, HeLa",[1]; [5],0
same,"Hoechst 33342 nuclear staining score, Jurkat",[1]; [2],0
same,"Hoechst 33342 nuclear staining score, Jurkat",[1]; [3],0
same,"Hoechst 33342 nuclear staining score, Jurkat",[1]; [4],0
same,"Hoechst 33342 nuclear staining score, Jurkat",[1]; [5],0
